Experimental data from patent publication US11866451B2, “Salts and crystalline forms of a PD-1/PD-L1 inhibitor” (Incyte Corporation, priority 2019, dated 2024).

What was measured:
Format in all cases: physicochemical
[1] = Solubility measurement in various solvents at 25° C. (Procedure 1); conditions: thermodynamic from solid
Protocol: (§1) The solubility of Compound 1 Di-Hydrochloric Acid Salt Form I was measured according to Procedure 1 for solubility in 25° C. (Table 5) and Procedure 2 for 50° C. [table] [table]

[2] = Solubility measurement in various solvents at 50° C. (Procedure 2)
Protocol: as §1

[3] = Competitive slurry experiments, stability relationship of polymorphs in 10% water/acetone
Protocol: To evaluate the transformation of Compound 1 Di-Hydrochloric Acid Salt solid forms, competitive slurry experiments at 25±1° C. and 60±1° C. in the solvent of 10% water/acetone were performed with a mixture of eight polymorphs (Form I, and Form III through Form IX) as described in Table 23 and Table 24. [table] [table]

[4] = 2% water in acetone, organic solvent or mixture
[5] = 2% water in acetonitrile, organic solvent or mixture
[6] = 2-methoxyethanol, organic solvent or mixture
[7] = 5% water in acetone, organic solvent or mixture
[8] = 5% water in acetonitrile, organic solvent or mixture
[9] = 10% water in acetone, organic solvent or mixture
[10] = 10% water in acetonitrile, organic solvent or mixture
[11] = DMF, organic solvent or mixture
[12] = DMSO, organic solvent or mixture
[13] = EtOH, organic solvent or mixture
[14] = IPA, organic solvent or mixture
[15] = MeCN, organic solvent or mixture
[16] = acetone, organic solvent or mixture
[17] = chloroform, organic solvent or mixture

**Q.** What does the source list for Cl.Cl.Cn1c(C(=O)Nc2cccc(-c3cccc(NC(=O)c4nc5c(n4C)CCN(CCC46CCC(C(=O)O)(CC4)C6)C5)c3Cl)c2Cl)nc2c1CCN(CCC13CCC(C(=O)O)(CC1)C3)C2 [4,4′-(((((2,2′-dichloro-[1,1′-biphenyl]-3,3′-diyl)bis(azanediyl))bis(carbonyl))bis(1-methyl-1,4,6,7-tetrahydro-5H-imidazo[4,5-c]pyridine-2,5-diyl))bis(ethane-2,1-diyl))bis(bicyclo[2.2.1]heptane-1-carboxylic acid) di-hydrochloric acid salt]?
**A.** solubility [1, 4]: 50 µg/mL; solubility [1, 5]: 10 µg/mL; solubility [1, 6]: 16900 µg/mL; solubility [1, 7]: 320 µg/mL; solubility [1, 8]: 1040 µg/mL; solubility [1, 9]: 2300 µg/mL; solubility [1, 10]: 3640 µg/mL; solubility [1, 11]: 2980 µg/mL; solubility [1, 12]: > 50000 µg/mL; solubility [1, 13]: 390 µg/mL; solubility [1, 14]: 650 µg/mL; solubility ([1]; IPAc, organic solvent or mixture): 10 µg/mL; solubility [1, 15]: 20 µg/mL; solubility ([1]; THF, organic solvent or mixture): 50 µg/mL; solubility [1, 16]: 10 µg/mL; solubility [1, 17]: > 50000 µg/mL; solubility ([1]; organic solvent or mixture, 1-Propanol, solid phase Form V): 710 µg/mL; solubility ([1]; organic solvent or mixture, Methanol, solid phase Form III): 18800 µg/mL; solubility ([1]; organic solvent or mixture, n-BuOH, solid phase Form IV): 460 µg/mL; solubility ([1]; Water, solid phase Form VI): 12900 µg/mL; solubility ([2]; 1,4-dioxane, organic solvent or mixture): 10 µg/mL; solubility ([2]; 1-propanol, organic solvent or mixture): 1120 µg/mL; solubility [2, 4]: 110 µg/mL; solubility [2, 5]: 10 µg/mL; solubility [2, 6]: 28300 µg/mL; solubility [2, 7]: 560 µg/mL; solubility [2, 8]: 1210 µg/mL; solubility [2, 9]: 5710 µg/mL; solubility [2, 10]: 6610 µg/mL; solubility [2, 11]: 5480 µg/mL; solubility [2, 12]: > 50000 µg/mL; solubility [2, 13]: 1100 µg/mL; solubility [2, 14]: 980 µg/mL; solubility ([2]; MEK, organic solvent or mixture): 150 µg/mL; solubility ([2]; MIBK, organic solvent or mixture): 10 µg/mL; solubility [2, 15]: 10 µg/mL; solubility ([2]; THF, organic solvent or mixture, thermodynamic from solid): 40 µg/mL; solubility [2, 16]: 10 µg/mL; solubility [2, 17]: > 50000 µg/mL; solubility ([2]; methanol, organic solvent or mixture, thermodynamic from solid): 22100 µg/mL; solubility ([2]; organic solvent or mixture, thermodynamic from solid, n-BuOH, solid phase Form IV): 420 µg/mL; solubility ([2]; thermodynamic from solid, Water, solid phase Form VI): 14800 µg/mL; Relative stability of polymorphic forms ([3]; 10% water/acetone at 25 and 60° C., competitive slurry): most stable polymorphic form

**Q.** For Cl.Cl.Cn1c(C(=O)Nc2cccc(-c3cccc(NC(=O)c4nc5c(n4C)CCN(CCC46CCC(C(=O)O)(CC4)C6)C5)c3Cl)c2Cl)nc2c1CCN(CCC13CCC(C(=O)O)(CC1)C3)C2 [Form III, 4,4′-(((((2,2′-dichloro-[1,1′-biphenyl]-3,3′-diyl)bis(azanediyl))bis(carbonyl))bis(1-methyl-1,4,6,7-tetrahydro-5H-imidazo[4,5-c]pyridine-2,5-diyl))bis(ethane-2,1-diyl))bis(bicyclo[2.2.1]heptane-1-carboxylic acid) di-hydrochloric acid salt], which “Polymorph transformation in competitive slurry (XRPD)” value ([3]; mixture of polymorphs stirred in 10% water/acetone at 25±° C. for 20 hours and at 60±° C. for 2 h) is on record?
**A.** Its value is “converted to Form I”.
